Results: BindingDB's records for doi:10.3109/14756366.2012.732071 (Ondokuz Mayis University, 2013)

Columns and labels:
Carbonic anhydrase 1 = Carbonic anhydrase 1 (Homo sapiens, UniProt P00915); experiment: Esterase Assay; conditions: pH 7.4; 25 °C
Experimental: (§1) The enzymatic reaction, in a total volume of 3.0 mL, contained 1.4 mL 0.05 M Tris-SO4 buffer (pH 7.4), 1 mL 3 mM NPA, 0.5 mL H2O and 0.1 mL enzyme solution. A reference measurement was obtained by preparing the same cuvette without enzyme solution. All compounds were tested in triplicate at each concentration used.

Carbonic anhydrase 2 = Carbonic anhydrase 2 (Homo sapiens, UniProt P00918); experiment: Esterase Assay; conditions: pH 7.4; 25 °C
Experimental: as §1

Chain of Carbonic anhydrase 1 (P00915 whole entry): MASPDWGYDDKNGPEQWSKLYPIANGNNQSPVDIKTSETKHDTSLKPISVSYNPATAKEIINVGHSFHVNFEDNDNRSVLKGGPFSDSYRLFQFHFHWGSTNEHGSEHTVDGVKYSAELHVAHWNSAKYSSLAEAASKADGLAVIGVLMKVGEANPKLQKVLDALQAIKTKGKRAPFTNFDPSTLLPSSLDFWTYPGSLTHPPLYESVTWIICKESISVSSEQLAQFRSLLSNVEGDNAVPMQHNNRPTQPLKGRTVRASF

Ki (Carbonic anhydrase 1) | Ki (Carbonic anhydrase 2) | Compound
6.8 µM | 1.34 µM | Cc1cccc(N2C(=O)CSC2c2cccs2)n1 (stereo unspecified) [Thiazolidin-based CA inhibitor, 1]
29.4 µM | 3.59 µM | Cc1cccc(N2C(=O)[C@@H](C)S[C@H]2c2sccc2C)n1 [Thiazolidin-based CA inhibitor, 5b]
47.5 µM | 2.48 µM | Cc1cccc(N2C(=O)CSC2c2sccc2C)n1 (stereo unspecified) [Thiazolidin-based CA inhibitor, 2]
5.58 µM | 0.93 µM | Cc1cccc(N2C(=O)[C@H](C)S[C@H]2c2ccc(C)s2)n1 [(2S,5S)-5-methyl-3-(6-methylpyridin-2-yl)-2-(5-methylthiophen-2-yl)thiazolidin-4-one]
4.43 µM | 0.81 µM | Cc1cccc(N2C(=O)[C@@H](C)S[C@H]2c2ccc(C)s2)n1 [(2S,5R)-5-methyl-3-(6-methylpyridin-2-yl)-2-(5-methylthiophen-2-yl)thiazolidin-4-one]
5.38 µM | 1.36 µM | Cc1cccc(N2C(=O)CSC2c2ccc(C)s2)n1 (stereo unspecified) [Thiazolidin-based CA inhibitor, 3]
27.5 µM | 2.29 µM | Cc1cccc(N2C(=O)[C@H](C)S[C@H]2c2sccc2C)n1 [Thiazolidin-based CA inhibitor, 5a]
5.51 µM | 1.32 µM | Cc1cccc(N2C(=O)C(C)SC2c2cccs2)n1 (stereo unspecified) [Thiazolidin-based CA inhibitor, 4]
